These compounds were tested against T1, NLRP3 inflammasome (Homo sapiens, UniProt Q96P20) (assay: ASC-SPECK formation in THP-1 cells after gramicidin stimulation (NLRP3 inflammasome activation)). Conditions: PMA-treated human monocytic THP-1 cells, compound 1 h before 12.5 ug/ml gramicidin, 3 h, ASC SPECK imaging; read-out: EC50 (nM) for Examples that inhibit NLRP3 inflammasome activation.
T1 construct: host or cells: THP-1 human monocytic cells, PMA-treated, stimulated with gramicidin
Assay type: cell-based
Experimental: The ability of compounds to inhibit NLRP3 inflammasome activation was determined in vitro by monitoring formation of the ASC-SPECK in human monocytic THP-1 cells after stimulation. THP-1 cells (ATCC catalog #TIB-202) were maintained in complete growth media containing Roswell Park Memorial Institute RPMI (ATCC catalog #30-2001), 10% heat inactivated fetal bovine serum, 1× penicillin/streptomycin and 0.05 mM 2-mercaptoethanol. At the start of the assay, undifferentiated THP-1 cells were plated at a density of 20,000 cells per well in a 384-well plate (Poly-D-lysine coated Cell Carrier Ultra microplate, Perkin Elmer catalog #6057500) in complete growth media supplemented with 10 ng/ml phorbol 12-myristate 13-acetate (PMA; Sigma catalog #P8139), and then incubated overnight. The next day, media was replaced with assay media [RPMI (Gibco catalog #11875-093), 0.01% bovine serum albumin (BSA)]. Compounds were serially diluted in DMSO and then added to wells one hour prior to the addition of 12.5 ug/ml Gramicidin (Enzo Lifescience, catalog #ALX-350-233-M005). All incubations were carried out at 37° C. (5% CO2/95% air). Following a 3-hour treatment with gramicidin, cells are fixed with 4% paraformaldehyde and stored at 4° C. until immunofluorescence staining.
Immunofluorescence staining: Anti-ASC antibody (MBL catalog #D086-3) was desalted and labeled with Alexa 488 antibody labeling kit (Thermo catalog #A20181) prior to use as described below. After fixation, the following steps were carried out at room temperature. Cells were first permeabilized with 0.3% Triton X-100 in phosphate-buffered saline (PBS) for 15 minutes and then incubated in blocking buffer containing 5% goat serum, 0.3% tween-20 and 0.03% sodium azide in PBS for 1 hour. Cells were stained with a mixture of ASC-Alexa 488 antibody (diluted 1:200 in blocking buffer) and nuclear stain DRAQ5 (1:5000 in blocking buffer, Thermo catalog #62251) in blocking buffer for 1 hour. Following a wash with 0.3% Tween-20 in PBS, plates were imaged with an Opera Phenix High Content Screening System. The number of DRAQ5 positive cells containing ASC SPECKS were quantified in each well.
Data analysis: EC50 values were calculated by standard curve-fitting analysis using an internally developed program in TIBCO Spotfire software.

T1 sequence (Q96P20 whole entry): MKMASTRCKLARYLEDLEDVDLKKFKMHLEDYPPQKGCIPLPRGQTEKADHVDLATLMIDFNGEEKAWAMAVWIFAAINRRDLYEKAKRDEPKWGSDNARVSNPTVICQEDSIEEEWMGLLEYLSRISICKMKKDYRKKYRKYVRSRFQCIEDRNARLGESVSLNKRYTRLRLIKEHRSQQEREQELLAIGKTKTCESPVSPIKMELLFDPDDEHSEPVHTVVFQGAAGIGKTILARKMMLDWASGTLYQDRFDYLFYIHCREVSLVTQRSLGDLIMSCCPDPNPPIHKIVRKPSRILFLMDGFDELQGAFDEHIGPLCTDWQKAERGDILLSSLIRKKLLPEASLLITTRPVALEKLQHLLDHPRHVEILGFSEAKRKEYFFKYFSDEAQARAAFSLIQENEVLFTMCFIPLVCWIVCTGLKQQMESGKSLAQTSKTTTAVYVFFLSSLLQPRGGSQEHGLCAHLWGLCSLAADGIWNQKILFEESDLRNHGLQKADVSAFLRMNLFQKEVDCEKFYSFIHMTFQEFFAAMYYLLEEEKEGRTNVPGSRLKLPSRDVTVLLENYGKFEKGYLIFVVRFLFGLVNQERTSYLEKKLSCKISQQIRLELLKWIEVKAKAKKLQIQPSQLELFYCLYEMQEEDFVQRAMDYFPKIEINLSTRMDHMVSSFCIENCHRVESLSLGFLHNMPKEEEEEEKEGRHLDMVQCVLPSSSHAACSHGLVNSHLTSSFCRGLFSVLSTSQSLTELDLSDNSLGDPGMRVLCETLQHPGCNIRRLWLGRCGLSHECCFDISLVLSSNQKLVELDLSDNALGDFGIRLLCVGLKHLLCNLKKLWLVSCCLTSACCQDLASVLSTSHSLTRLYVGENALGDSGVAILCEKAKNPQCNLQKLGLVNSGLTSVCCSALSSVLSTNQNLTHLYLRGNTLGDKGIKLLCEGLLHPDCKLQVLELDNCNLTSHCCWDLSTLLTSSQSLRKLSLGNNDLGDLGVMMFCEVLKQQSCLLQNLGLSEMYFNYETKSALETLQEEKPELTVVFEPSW

Q: For `Oc1cc(C(F)(F)F)ccc1-c1nnc(N2CCC(O)(C(F)(F)F)C2)c2ncccc12` (racemic) [Example 27, (R and S)-1-(5-(2-hydroxy-4-(trifluoromethyl)phenyl)pyrido [2,3-d]pyridazin-8-yl)-3-(trifluoromethyl)pyrrolidin-3-ol], which EC50 is on record?
A: 1230 nM

Q: With `Oc1cc(C(F)(F)F)ccc1-c1nnc(N2CCC(O)(C(F)F)C2)c2ncccc12` (racemic) [Example 28, (R and S)-3-(difluoromethyl)-1-(5-(2-hydroxy-4-(trifluoromethyl)phenyl)pyrido [2,3-d]pyridazin-8-yl)pyrrolidin-3-ol] as the compound, how does the EC50 read?
A: 447 nM

Q: `Oc1cc(C(F)(F)F)ccc1-c1nnc(N2CCC3(CCCO3)C2)c2ncccc12` (racemic) [Example 29, (R and S)-2-(8-(1-oxa-7-azaspiro[4.4]nonan-7-yl)pyrido[2,3-d]pyridazin-5-yl)-5-(trifluoromethyl)phenol] was tested. Which EC50 did it give?
A: 353 nM

Q: For `Oc1cc(C(F)(F)F)ccc1-c1nnc(N2CCC(O)(c3ccccc3)C2)c2ncccc12` (racemic) [Example 38, (R and S)-1-(5-(2-hydroxy-4-(trifluoromethyl)phenyl)pyrido [2,3-d]pyridazin-8-yl)-3-phenylpyrrolidin-3-ol], which EC50 is on record?
A: 1600 nM

Q: How did the EC50 turn out when `Oc1cc(C(F)(F)F)ccc1-c1nnc(N2CC(O)C(F)(F)C2)c2ncccc12` (racemic) [Example 43, (R and S)-4,4-difluoro-1-(5-(2-hydroxy-4-(trifluoromethyl)phenyl)pyrido [2,3-d]pyridazin-8-yl)pyrrolidin-3-ol] was run?
A: 482 nM

Q: How did the EC50 turn out when `Oc1cc(C(F)(F)F)ccc1-c1nnc(N2CC(O)C3(CC3)C2)c2ncccc12` (racemic) [Example 44, (R and S)-5-(5-(2-hydroxy-4-(trifluoromethyl)phenyl)pyrido [2,3-d]pyridazin-8-yl)-5-azaspiro[2.4]heptan-7-ol] was run?
A: 591 nM

Q: `Oc1cc(C(F)(F)F)ccc1-c1nnc(N2CCC(O)(C3CC3)C2)c2ncccc12` (racemic) [Example 45, (R and S)-3-cyclopropyl-1-(5-(2-hydroxy-4-(trifluoromethyl)phenyl)pyrido [2,3-d]pyridazin-8-yl)pyrrolidin-3-ol] was tested. Which EC50 did it give?
A: 1180 nM

Q: Which EC50 does the source give for `CN(C)CC1(O)CCN(c2nnc(-c3ccc(C(F)(F)F)cc3O)c3cccnc23)C1` (racemic) [Example 46, (R and S)-3-((dimethylamino)methyl)-1-(5-(2-hydroxy-4-(trifluoromethyl)phenyl)pyrido [2,3-d]pyridazin-8-yl)pyrrolidin-3-ol] here?
A: 831 nM

Q: For `CCC1(O)CCN(c2nnc(-c3ccc(C(F)(F)F)cc3O)c3cccnc23)C1` (racemic) [Example 47, (R and S)-3-ethyl-1-(5-(2-hydroxy-4-(trifluoromethyl)phenyl)pyrido [2,3-d]pyridazin-8-yl)pyrrolidin-3-ol], which EC50 is on record?
A: 494 nM

Q: How did the EC50 turn out when `CC1(CO)CCN(c2nnc(-c3ccc(C(F)(F)F)cc3O)c3cccnc23)C1` (racemic) [Example 48, (R and S)-2-(8-(3-(hydroxymethyl)-3-methylpyrrolidin-1-yl)pyrido[2,3-d]pyridazin-5-yl)-5-(trifluoromethyl)phenol] was run?
A: 411 nM

Q: For `C[C@]1(O)CCN(c2nnc(-c3ccc(C(F)(F)F)cc3O)c3cnccc23)C1` (single isomer, unassigned) [Example 1], which EC50 is on record?
A: 356 nM

Q: For `C[C@]1(O)CCN(c2nnc(-c3ccc(C(F)(F)F)cc3O)c3ccncc23)C1` (single isomer, unassigned) [Example 2], which EC50 is on record?
A: 49 nM

Q: `C[C@@H]1CN(c2nnc(-c3ccc(C(F)(F)F)cc3O)c3ccncc23)C[C@H](C)[C@]1(C)O` (single isomer, unassigned) [Example 16] was tested. Which EC50 did it give?
A: 70 nM

Q: `C[C@@H]1CN(c2nnc(-c3ccc(C(F)(F)F)cc3O)c3ccncc23)C[C@H](C)[C@H]1O` (single isomer, unassigned) [Example 18] was tested. Which EC50 did it give?
A: 23 nM

Q: For `Cc1ccc2c(-c3ccc(C(F)(F)F)cc3O)nnc(N3C[C@@H](C)O[C@@H](C)C3)c2c1` (single isomer, unassigned) [Example 20, 2-(4-((cis)-2,6-dimethylmorpholino)-6-methylphthalazin-1-yl)-5-(trifluoromethyl)phenol], which EC50 is on record?
A: 33 nM

Q: For `CC1CN(c2nnc(-c3ccc(C(F)(F)F)cc3O)c3cccnc23)CC(CO)O1` (single isomer, unassigned) [Example 51, 2-(8-((2R,6R or 2S,6S)-2-(hydroxymethyl)-6-methylmorpholino)pyrido[2,3-d]pyridazin-5-yl)-5-(trifluoromethyl) phenol], which EC50 is on record?
A: 65 nM

Q: Which EC50 does the source give for `CC1CN(c2nnc(-c3ccc(C(F)(F)F)cc3O)c3cccnc23)CC(CO)O1` (single isomer, unassigned) [Example 52, 2-(8-((2S,6S or 2R,6R)-2-(hydroxy-methyl)-6-methyl-morpholino)pyrido[2,3-d]pyridazin-5-yl)-5-(trifluoro-methyl)phenol] here?
A: 74 nM

Q: How did the EC50 turn out when `C[C@@H]1CN(c2nnc(-c3ccc(C(F)(F)F)cc3OC(F)F)c3cccnc23)C[C@H](C)O1` [Example 3, (cis)-4-(5-(2-(difluoromethoxy)-4-(trifluoromethyl)phenyl)pyrido[2,3-d]pyridazin-8-yl)-2,6-dimethylmorpholine] was run?
A: 891 nM

Q: For `C[C@@H]1CN(c2nnc(-c3ccc(C(F)(F)F)cc3O)c3ccncc23)C[C@H](C)O1` [Example 4, 2-(4-((cis)-2,6-dimethylmorpholino)pyrido[3,4-d]pyridazin-1-yl)-5-(trifluoromethyl)phenol], which EC50 is on record?
A: 82 nM

Q: `C[C@@H]1CN(c2nnc(-c3ccc(C(F)(F)F)cc3O)c3cnccc23)C[C@H](C)O1` [Example 5, 2-(1-((cis)-2,6-dimethylmorpholino)pyrido[3,4-d]pyridazin-4-yl)-5-(trifluoromethyl)phenol] was tested. Which EC50 did it give?
A: 556 nM

Q: How did the EC50 turn out when `C[C@@H]1CN(c2nnc(-c3ccc(C(F)(F)F)cc3O)c3ncccc23)C[C@H](C)O1` [Example 6, 2-(5-((cis)-2,6-dimethylmorpholino)pyrido[2,3-d]pyridazin-8-yl)-5-(trifluoromethyl)phenol] was run?
A: 1850 nM

Q: With `C[C@@H]1CN(c2nnc(-c3ccc(C(F)(F)F)cc3OC(F)F)c3ccncc23)C[C@H](C)O1` [Example 7, (cis)-4-(1-(2-(difluoromethoxy)-4-(trifluoromethyl)phenyl)pyrido[3,4-d]pyridazin-4-yl)-2,6-dimethylmorpholine] as the compound, how does the EC50 read?
A: 570 nM

Q: `C[C@@H]1CN(c2nnc(-c3ccc(C(F)(F)F)cc3O)c3ccnnc23)C[C@H](C)O1` [Example 8, 2-(8-((cis)-2,6-dimethylmorpholino)pyridazino[4,5-c]pyridazin-5-yl)-5-(trifluoromethyl)phenol] was tested. Which EC50 did it give?
A: 515 nM

Q: Which EC50 does the source give for `C[C@@H]1CN(c2nnc(-c3ccc(C(F)(F)F)cc3O)c3cnncc23)C[C@H](C)O1` [Example 9, 2-(4-((cis)-2,6-dimethylmorpholino)pyridazino[4,5-d]pyridazin-1-yl)-5-(trifluoromethyl)phenol] here?
A: 80 nM

Q: With `Cc1ccc2c(-c3ccc(C(F)(F)F)cc3O)nnc(N3CC[C@](C)(O)C3)c2n1` [Example 10, (S)-1-(5-(2-hydroxy-4-(trifluoromethyl)phenyl)-2-methylpyrido[2,3-d]pyridazin-8-yl)-3-methylpyrrolidin-3-ol] as the compound, how does the EC50 read?
A: 60 nM

Q: For `C[C@@H]1CN(c2nnc(-c3ccc4occc4c3)c3ccncc23)C[C@H](C)O1` [Example 11, (cis)-4-(1-(benzofuran-5-yl)pyrido[3,4-d]pyridazin-4-yl)-2,6-dimethylmorpholine], which EC50 is on record?
A: 750 nM

Q: Which EC50 does the source give for `C[C@]1(O)CCN(c2nnc(-c3ccc(C(F)(F)F)cc3O)c3ccc(C(F)(F)F)nc23)C1` [Example 12, (S)-1-(5-(2-hydroxy-4-(trifluoromethyl)phenyl)-2-(trifluoromethyl)pyrido[2,3-d]pyridazin-8-yl)-3-methylpyrrolidin-3-ol] here?
A: 621 nM

Q: Which EC50 does the source give for `C[C@@H]1CN(c2nnc(-c3ccc(C(F)(F)F)cc3O)c3cnncc23)C[C@H](C)[C@]1(C)O` [Example 13, (3S,4s,5R)-1-(4-(2-hydroxy-4-(trifluoromethyl)phenyl)pyridazino [4,5-d]pyridazin-1-yl)-3,4,5-trimethylpiperidin-4-ol] here?
A: 264 nM

Q: Which EC50 does the source give for `Cc1cccc2c(-c3ccc(C(F)(F)F)cc3O)nnc(N3C[C@@H](C)O[C@@H](C)C3)c12` [Example 14, 2-(4-((cis)-2,6-dimethylmorpholino)-5-methylphthalazin-1-yl)-5-(trifluoromethyl)phenol] here?
A: 734 nM

Q: `Cc1cccc2c(N3C[C@@H](C)O[C@@H](C)C3)nnc(-c3ccc(C(F)(F)F)cc3O)c12` [Example 15, 2-(4-((cis)-2,6-dimethylmorpholino)-8-methylphthalazin-1-yl)-5-(trifluoromethyl)phenol] was tested. Which EC50 did it give?
A: 3680 nM
